Assay results: patent EP1721601A1, “Use of taurine for enhancing lipid synthesis in the epidermis” (Henkel Kommanditgesellschaft auf Aktien, priority 2005, dated 2006)
Entries after “also recorded” stand apart in the source; their conditions may differ.

Tests used:
[1] = tested on: Interleukin 1-alpha (IL-1alpha); test: Irritation markers in vitro: IL-1alpha release of SDS-damaged epidermis models; type: cell-based; settings: for IL-1alpha-Freisetzung: 1 h 0,18% SDS, rinsed, then 24 h topical emulsion (C: 0.1 Gew.-% Triamcinolonacetonid; E: 1 Gew.-% Taurin; B: no further treatment), mean +/- SEM, n=3, unbehandelt 15, Vehikel 387
Experimental: (§1) Anschließend wurden die Epidermismodelle abgespült und für weitere 24h unter topischer Applikation folgender Emulsionen inkubiert: C: Kortikoid-ratiopharm® Creme (0.1 Gew.-% Triamcinolonacetonid); D: 1,5 Gew.-% Behenylalkohol + 2,75 Gew.-% Arachidylalkohol; E: 1,5 Gew.-% Behenylalkohol + 2,75 Gew.-% Arachidylalkohol +1 Gew.-% Taurin. […] Die Daten repräsentieren die Mittelwerte +/-SEM (n=3).

Prostaglandin E2 (PGE2) = test: Irritation markers in vitro: PGE2 release of SDS-damaged epidermis models; type: cell-based; settings: for PGE2-Freisetzung: 1 h 0,18% SDS, rinsed, then 24 h topical emulsion (C: 0.1 Gew.-% Triamcinolonacetonid; E: 1 Gew.-% Taurin; B: no further treatment), mean +/- SEM, n=3, unbehandelt 0,84, Vehikel 1,40
Experimental: as §1

Epidermismodelle [2] = test: Irritation markers in vitro: viability and LDH release of SDS-damaged epidermis models; type: cell-based; settings: for LDH-Freisetzung / Vitalität: 1 h 0,18% SDS, rinsed, then 24 h topical emulsion (C: 0.1 Gew.-% Triamcinolonacetonid; E: 1 Gew.-% Taurin; B: no further treatment), mean +/- SEM, n=3; for LDH-Freisetzung: unbehandelt 0,22, Vehikel 1,95; for Vitalität: unbehandelt 100, Vehikel 66
Experimental: as §1

[3] = tested on: epidermale Barrierefunktion; test: Epidermal barrier function (TEWL) after repetitive SDS damage in vivo
Source text: Anschließend wurden Öl-in-Wasser-Emulsionen mit 1,5 Gew.-% Behenylalkohol und 2,75 Gew.-% Arachidylalkohol (VAR1: 0 Gew.-% Taurin; VAR2: 1 Gew.-% Taurin) appliziert, oder die Haut verblieb unbehandelt (VAR3). Diese Behandlung wurde zweimal täglich an 5 Tagen durchgeführt. Der transepidermale Wasserverlust (TEWL) wurde jeweils vor der SDS-Schädigung mit einem […] (Courage & Khazaka, Köln, Germany) bestimmt. Die Daten wurden auf die t0-Werte normiert und ein dimensionsloser Wert "area under the curve" errechnet (siehe Tabelle 1). Die statistische Analyse der Daten basiert auf dem gepaarten Wilcoxon-Test. Die Daten repräsentieren die Mittelwerte (n=18). Tab. 2: Einfluss von Taurin auf Irritationsmarker in vitro

Epidermismodelle [4] = test: Epidermal synthesis of barrier lipids in epidermis models; type: cell-based
Experimental: Epidermismodelle wurden 12 Tage lang kultiviert. Nach 12 Tagen (t = 0) wurden die individuell entwickelten sogenannten Barrierelipide (Ceramide, Cholesterol, Fettsäuren, Cholesterolsulfate und Cholesterolester) quantifiziert. Anschließend wurde ein Teil der Epidermismodelle 5 Tage lang ohne Zusatz von Taurin weiterkultiviert. Ein anderer Teil der Epidermismodelle wurde 5 Tage lang […] Zusatz von 0,3 mM Taurin weiterkultiviert. Nach insgesamt 17 Tagen Kultivierungsdauer (t = 5) wurden erneut die Barrierelipide quantifiziert. […] Die in Tab. 3 gezeigten Unterschiede zu t = 5 waren statistisch signifikant (p<0,05). Tabelle 3: Einfluss von Taurin auf die epidermale Synthese von Barrierelipiden (Angaben der Menge an Barrierelipiden in Gew.-%, bezogen auf den Gesamtlipidgehalt der Epidermismodelle, Mittelwerte aus n = 4 Messungen (± Standardabweichung))

[5] = incubation of skin models with Taurin, result in words

SMILES | IL-1alpha-Freisetzung [1] | PGE2-Freisetzung (Prostaglandin E2 (PGE2)) | LDH-Freisetzung (Epidermismodelle [2]) | Vitalität (Epidermismodelle [2]) | TEWL "area under the curve", Mittelwert in % (Unbehandelt = 100 %) ([3]; O/W emulsion with 1 Gew.-% Taurin after occlusive 0.75% SDS, twice daily on 5 days, n=18, Vehikel 62,5 %) | transepidermaler Wasserverlust (TEWL), "area under the curve", Mittelwert ([3]; O/W emulsion with 1 Gew.-% Taurin after occlusive 0.75% SDS, twice daily on 5 days, normalised to t0, n=18) | Regeneration der Hautbarrierefunktion nach SDS-Schädigung ([3]; application of Taurin, result in words) | transepidermaler Wasserverlust (TEWL) ([3]; topical application of Taurin after repeated SDS treatment of the skin, result in words) | Ausschüttung von Interleukin-1-alpha [1, 5] | Cholesterolsulfat (Epidermismodelle [4]; 0,3 mM Taurin for 5 days (t = 5, 17 days culture), % of total lipid content, mean of n = 4 (± SD), without Taurin 0,6) | Cholesterol-ester (Epidermismodelle [4]; 0,3 mM Taurin for 5 days (t = 5, 17 days culture), % of total lipid content, mean of n = 4 (± SD), without Taurin 0,9) | Fettsäuren (Epidermismodelle [4]; 0,3 mM Taurin for 5 days (t = 5, 17 days culture), % of total lipid content, mean of n = 4 (± SD), without Taurin 3,5) | Ceramide (Epidermismodelle [4]; 0,3 mM Taurin for 5 days (t = 5, 17 days culture), % of total lipid content, mean of n = 4 (± SD), without Taurin 7,1) | Cholesterol (Epidermismodelle [4]; 0,3 mM Taurin for 5 days (t = 5, 17 days culture), % of total lipid content, mean of n = 4 (± SD), without Taurin 9,9) | Spiegel an Ceramiden, Cholesterol und freien Fettsäuren (Epidermismodelle [4]; skin models with Taurin, result in words) | epidermale Synthese von Barrierelipiden (Epidermismodelle [4]; skin/epidermis models with Taurin, result in words, differences at t = 5 significant (p<0,05)) | Ausschüttung von Prostaglandin-E2 (Prostaglandin E2 (PGE2); [5]) | Integrität der Keratinozytenmembran (Epidermismodelle [2]; [5]) | Vitalität der Keratinozyten (Epidermismodelle [2]; [5])
CC1(C)O[C@@H]2C[C@H]3[C@@H]4CCC5=CC(=O)C=C[C@]5(C)[C@@]4(F)[C@@H](O)C[C@]3(C)[C@]2(C(=O)CO)O1 [Triamcinolonacetonid, reference compound] | 292 ± 26 pg/mL | 0,30 +/- 0,05 ng/ml | 1,19 +/- 0,16 OD 492nm | 86 +/- 8% | – | – | – | – | – | – | – | – | – | – | – | – | – | – | –
NCCS(=O)(=O)O [Taurin, 2-Aminoethansulfonsäure] | 288 ± 37 pg/mL | 0,83 +/- 0,05 ng/ml | 1,30 +/- 0,15 OD 492nm | 82 +/- 2% | 30,3% | 881932 arbitrary units | signifikant beschleunigt | senkte den TEWL in signifikantem Ausmaß | nahm die Ausschüttung von Interleukin-1-alpha und von Prostaglandin-E2 ab | 1,0 (± 0,2) Gew.-% | 1,6 (± 0,2) Gew.-% | 5,7 (± 1,5) Gew.-% | 11.7 (± 1,6) Gew.-% | 11,0 (± 1,2) Gew.-% | in gleichem Ausmaß | in signifikantem Ausmaß die Synthese aller drei Klassen von Barrierelipiden; also recorded: Steigerung der epidermalen Synthese von Barrierelipiden | nahm die Ausschüttung von Interleukin-1-alpha und von Prostaglandin-E2 ab | stabilisierte sich | verbesserte sich
